The text below walks through data of ChEMBL document CHEMBL1201862, “PubChem BioAssay data set” (2004).

Structures are written as SMILES.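 The compound was tested at five concentrations on cells cultured in 96-well plates, with a 48-hour exposure period. Here, GI50 denotes the concentration required for 50% inhibition of growth.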 The source made the active and inactive calls. Rule as the data show it: active = GI50 up to about 1.1 µM and inactive = higher.

Assay in all cases: NCI-60 cell line screen, 48 h
In assay [1] the test system is CCRF-CEM.
Assay [2] deals with DLD-1.
Assay [3] has as its system EKVX.
The test system of assay [4] is HCT-116.
The test system of assay [5] is HCT-15.
Assay [6] concerns HL-60.
Assay [7] relates to HT-29.
The test system of assay [8] is Hs-578T.
The subject of assay [9] is NCI-H226.
In assay [10] the test system is NCI/ADR-RES.
For assay [11], the system named is OVCAR-4.
Assay [12] relates to PC-3.
For assay [13], the system named is RXF 393.
The subject of assay [14] is SF-268.
Assay [15] relates to SK-OV-3.
Assay [16] deals with TK-10.
The test system of assay [17] is UACC-257.
Assay [18] deals with UACC-62.
Assay [19] deals with CAKI-1.
Assay [20] deals with MCF7.

`CC(C)=CC(=O)OC1C2C(C)=CC(=O)C(O)C2(C)C2C3(O)OCC24C(CC(=O)OC14)C(C)C3O` (configuration not stated): the GI50 in [1] was 8.59 nM (active); in assay [2], 21.1 nM (active); in assay [3], 57.7 nM (active); in assay [4], 5.19 nM (active); in assay [5], 42.6 nM; in assay [6] it was 2.69 nM (active). In addition, the GI50 was 10.4 nM (active) in assay [7]; 2.25 nM (active) in [8]; 9.84 nM (active) in assay [9]; 72.4 nM (active) in [10]; 13.5 nM (active) in assay [11]; 2.89 nM (active) in [12]. Besides, the GI50 in [13] was 14.9 nM (active); in assay [14], 29 nM (active); in assay [15], 213 nM (active); in [16], 21.6 nM (active); in [17] it was 11.3 nM (active); in assay [18] it was 9.25 nM (active).
Regarding `O=C1C(Cl)C(c2cc(Br)cc(Br)c2O)N1n1cnc2ccccc2c1=O` (configuration not stated), the GI50 in [19] was 17700 nM (inactive); in [1] it was 9290 nM (inactive); in assay [2], 8870 nM (inactive); in [3], 25100 nM (inactive); in [4] it was 18900 nM (inactive); in [5], 20300 nM. Besides, the GI50 is 16800 nM (inactive) in assay [6]; 36100 nM (inactive) in [7]; 21900 nM (inactive) in assay [9]; 9550 nM (inactive) in [11]; 21000 nM (inactive) in [13]; 10700 nM (inactive) in assay [14]. Besides, the GI50 in assay [15] was 13600 nM (inactive); in assay [16] it was 46500 nM (inactive); in assay [17], 18700 nM (inactive); in [18] it was 19200 nM (inactive).
`O=c1cc(-c2ccccc2F)[nH]c2cc3c(cc12)OCO3`: the GI50 is 129 nM (active) in [1]; 44.1 nM (active) in assay [2]; 48.9 nM (active) in assay [4]; 41.7 nM in [5]; 45.4 nM (active) in assay [6]; 94.2 nM (active) in assay [7]. In addition, the GI50 in [8] is 72.8 nM (active); in assay [20], 95.3 nM (active); in assay [9], 184 nM (active); in [10], 35 nM (active); in assay [11], > 24600 nM (inactive); in [12], 49.5 nM (active). For the same molecule, the GI50 in assay [13] is 81.3 nM (active); in [14] it was 504 nM (active); in assay [15], 201 nM (active); in assay [16] it was 2880 nM (inactive); in assay [17] it was 1200 nM (inactive); in [18], 42 nM (active).
